Measurements from patent US20260125397A1, “MK2 DEGRADERS AND USES THEREOF” (Kymera Therapeutics, Inc., priority 2023, published 2026).

biological target: T1, MK2 (Homo sapiens, UniProt P49137); test: MK2 degradation in human SW1353 cells (MSD, 24 h); format: cell-based; design: endogenous in cells; host or cells: SW-1353 (ATCC HTB-94); settings: read-out: MK2 MSD SW 1353 24 h Dmax %
Method: The human chondrocyte cancer cell line SW-1353 (ATCC(HTB-94)) was cultured in 96 well plates (Coming 3894) at a density of 200,000 cells per well in 100 microlitres in complete growth medium of Leibovitz's L-15 Medium (Gibco) pus 10% fetal Bovine Serum (Coming) and Penicillin/Streptomycin (SolarBio) at 37 degrees Celsius. A serial dilution of each compound (usually 3 to 5 fold serial dilutions up to 10 separate concentration points) was added to individual wells from a 10 millimolar stock solution, at a background concentration of 0.10% DMSO and the cells were shaken at 600 rpm for 5 minutes and then were cultured for 24 hours at 37 degrees Celsius. Separately, a custom MSD (MesoScaleDiscovery, L15XA-3) plate for detection of human MK2 was prepared by coating the plate with the commercial AbCam ab247272 reagent in 1× Phosphate Buffered Saline at 40 microlitres per well and incubated at 4 degrees Celsius overnight. The next day, the MSD plate was washed with 150 microlitres of Tween buffered saline, blocked with MSD blocking buffer (3% Blocker A from MSD), and washed again.
The cell plate was centrifuged at 3,200 g for 5 minutes and the supernatant was discarded and 100 microlitres of RIPA lysis buffer (containing proteinase inhibitors, Boston BioProducts BP-115D) was added and the plate was sealed and shaken on ice for 20 minutes. The plate was centrifuged as before and 70 microlitres of sample lysate was added to the MSD plates and they were shaken at room temperature for 1 hour at 600 rpm. The MSD plate was washed 3 times as before and then the primary MK2 detection antibody (Santa Cruz sc-100393) was added at a final concentration of 1 microgram per ml at 25 microlitres per well and shaken at room temperature for 1 hour at 600 rpm.
(§1) After 3 more washes, the secondary detection antibody (SULFO-Tag anti rabbit antibody R32AB-5) was added at a final concentration of 1 microgram per ml at 25 microlitres per well and shaken at room temperature for 1 hour at 600 rpm. After 3 more washes, the 1X MSD (diluted from 5X concentrate with water) reading buffer was added at 150 microlitres per well and read on the MSD instrument Meso Sector S 600.
(§2) The inhibition/degradation curves and DC50 values were plotted and calculated using XL Fit (version v5.3.1.3) using equation 201 and a 4 parameter logistic model whereby fit=(A+((B−A)/(1+((x/C)D))) where A is the Bottom and B is the Top and C is the IC50 and D is the slope and high C is the signal for the DMSO treated cells and Low C is the signal is the signal for the lysis buffer.

T1 sequence (P49137 whole entry): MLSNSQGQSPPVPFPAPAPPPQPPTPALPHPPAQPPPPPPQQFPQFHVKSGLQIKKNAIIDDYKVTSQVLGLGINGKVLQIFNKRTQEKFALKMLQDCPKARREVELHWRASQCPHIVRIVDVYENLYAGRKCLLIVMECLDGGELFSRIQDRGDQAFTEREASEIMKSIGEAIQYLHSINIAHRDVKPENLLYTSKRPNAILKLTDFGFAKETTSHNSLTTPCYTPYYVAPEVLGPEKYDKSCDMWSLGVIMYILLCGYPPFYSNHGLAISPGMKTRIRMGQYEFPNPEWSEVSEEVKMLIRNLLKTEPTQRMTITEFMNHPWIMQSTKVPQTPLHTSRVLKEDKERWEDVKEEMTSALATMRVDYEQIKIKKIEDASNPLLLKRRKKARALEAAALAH

First: C[C@@H]1CNc2c(sc3ccc4nc(N5CCC(COC6CCN(c7ccc8c(c7)n(C)c(=O)n8C7CCC(=O)NC7=O)CC6)CC5)ccc4c23)C(=O)N1 (stereo partly shown) [I-38]
Second: C[C@@H]1CNc2c(sc3ccc4nc(N5CCC(CN6CCC(N7CC(c8ccc9c(c8)n(C)c(=O)n9C8CCC(=O)NC8=O)C7)CC6)CC5)ccc4c23)C(=O)N1 (stereo partly shown) [I-43]
The Dmax of the first is lower: 50 to 75% for the first, > 75% for the second.

`C[C@@H]1CNc2c(sc3ccc4nc(N5CCN(C[C@H]6C[C@]7(CCN(c8ccc9c(c8)n(C)c(=O)n9C8CCC(=O)NC8=O)C7)C6)CC5)ccc4c23)C(=O)N1` (stereo partly shown) [I-39] and `C[C@@H]1CNc2c(sc3ccc4nc(N5CCN(C[C@H]6C[C@@]7(CCN(c8ccc9c(c8)n(C)c(=O)n9C8CCC(=O)NC8=O)C7)C6)CC5)ccc4c23)C(=O)N1` (stereo partly shown) [I-40] cannot be ordered by Dmax: > 50% for the first, > 75% for the second.

First: Cn1c(=O)n(C2CCC(=O)NC2=O)c2ccc(C#CCN3CCN(c4ccc(-c5nccc(-c6cc7c([nH]6)C6(CC6)CNC7=O)n5)cc4)CC3)cc21 (stereo not shown) [I-41]
Second: COc1ccc2c(c1CCN1CCN(c3ccc(-c4nccc(-c5cc6c([nH]5)C5(CC5)CNC6=O)n4)cc3)CC1)n(C)c(=O)n2C1CCC(=O)NC1=O (stereo not shown) [I-42]
The Dmax of the first is lower: 50 to 75% for the first, > 75% for the second.

In the case of `Cn1c(=O)n(C2CCC(=O)NC2=O)c2ccc(N3CC(CN4CCC(n5cc(-c6nccc(-c7cc8c([nH]7)C7(CC7)CNC8=O)n6)cn5)CC4)C3)cc21` (stereo not shown) [I-44], the Dmax is reported as > 50%.

same assay, conditions: read-out: MK2 MSD SW1353 degradation 24 h GMean External Abs DC50

`C[C@@H]1CNc2c(sc3ccc4nc(N5CCC(COC6CCN(c7ccc8c(c7)n(C)c(=O)n8C7CCC(=O)NC7=O)CC6)CC5)ccc4c23)C(=O)N1` (stereo partly shown) [I-38] and `C[C@@H]1CNc2c(sc3ccc4nc(N5CCC(CN6CCC(N7CC(c8ccc9c(c8)n(C)c(=O)n9C8CCC(=O)NC8=O)C7)CC6)CC5)ccc4c23)C(=O)N1` (stereo partly shown) [I-43] cannot be ordered by DC50: < 1 nM for the first, < 1 nM for the second.

`C[C@@H]1CNc2c(sc3ccc4nc(N5CCN(C[C@H]6C[C@]7(CCN(c8ccc9c(c8)n(C)c(=O)n9C8CCC(=O)NC8=O)C7)C6)CC5)ccc4c23)C(=O)N1` (stereo partly shown) [I-39] and `C[C@@H]1CNc2c(sc3ccc4nc(N5CCN(C[C@H]6C[C@@]7(CCN(c8ccc9c(c8)n(C)c(=O)n9C8CCC(=O)NC8=O)C7)C6)CC5)ccc4c23)C(=O)N1` (stereo partly shown) [I-40] cannot be ordered by DC50: < 1 nM for the first, < 1 nM for the second.

`Cn1c(=O)n(C2CCC(=O)NC2=O)c2ccc(C#CCN3CCN(c4ccc(-c5nccc(-c6cc7c([nH]6)C6(CC6)CNC7=O)n5)cc4)CC3)cc21` (stereo not shown) [I-41] and `COc1ccc2c(c1CCN1CCN(c3ccc(-c4nccc(-c5cc6c([nH]5)C5(CC5)CNC6=O)n4)cc3)CC1)n(C)c(=O)n2C1CCC(=O)NC1=O` (stereo not shown) [I-42] cannot be ordered by DC50: < 1 nM for the first, < 1 nM for the second.

`Cn1c(=O)n(C2CCC(=O)NC2=O)c2ccc(N3CC(CN4CCC(n5cc(-c6nccc(-c7cc8c([nH]7)C7(CC7)CNC8=O)n6)cn5)CC4)C3)cc21` (stereo not shown) [I-44] was tested, and the DC50 was > 100 nM.

biological target: T1, MK2; test: MK2 degradation in human THP-1 monocytic cells (MSD, 24 h); format: cell-based; design: endogenous in cells; settings: THP-1 cells
Method: The human monocytic cancer cell line THP-1 (ATCC (TIB-202)) was cultured in 96 well plates (Coming 3894) at a density of 200,000 cells per well in 100 microlitres in complete growth medium of RPMI 1640 (Gibco) pus 10% fetal Bovine Serum (Coming) and Penicillin/Streptomycin (SolarBio) at 37 degrees Celsius and 5% CO2. A serial dilution of each compound (usually 3 to 5 fold serial dilutions up to 10 separate concentration points) was added to individual wells from a 10 millimolar stock solution, at a background concentration of 0.1% DMSO and the cells were shaken at 600 rpm for 5 minutes and then were cultured for 24 hours at 37 degrees Celsius and 5% carbon dioxide. Separately, a custom MSD (MesoScaleDiscovery, L15XA-3) plate for detection of human MK2 was prepared by coating the plate with the commercial AbCarn ab247272 reagent in 1× Phosphate Buffered Saline at 40 microlitres per well and incubated at 4 degrees Celsius overnight. The next day, the MSD plate was washed with 150 microlitres of Tween buffered saline, blocked with MSD blocking buffer (3% BlockerA from MSD), and washed again.
The cell plate was centrifuged at 3,200 g for 5 minutes and the supernatant was discarded and 100 microlitres of RIPA lysis buffer (containing proteinase inhibitors, Boston BioProducts BP-115D) was added and the plate was sealed and shaken on ice for 20 minutes. The plate was centrifuged as before and 70 microlitres of sample lysate was added to the MSD plates and they were shaken at room temperature for I hour at 600 rpm. The MSD plate was washed 3 times as before and then the primary MK2 detection antibody (Santa Cruz sc-100393) was added at a final concentration of 1 microgram per ml at 25 microlitres per well and shaken at room temperature for 1 hour at 600 rpm.
as §1
as §2, with “IC50and” for “IC50 and”

First: C[C@@H]1CNc2c(sc3ccc4nc(N5CCC(COC6CCN(c7ccc8c(c7)n(C)c(=O)n8C7CCC(=O)NC7=O)CC6)CC5)ccc4c23)C(=O)N1 (stereo partly shown) [I-38]
Second: C[C@@H]1CNc2c(sc3ccc4nc(N5CCC(CN6CCC(N7CC(c8ccc9c(c8)n(C)c(=O)n9C8CCC(=O)NC8=O)C7)CC6)CC5)ccc4c23)C(=O)N1 (stereo partly shown) [I-43]
The Dmax of the first is lower: 50 to 75% for the first, > 75% for the second.

`C[C@@H]1CNc2c(sc3ccc4nc(N5CCN(C[C@H]6C[C@]7(CCN(c8ccc9c(c8)n(C)c(=O)n9C8CCC(=O)NC8=O)C7)C6)CC5)ccc4c23)C(=O)N1` (stereo partly shown) [I-39] and `C[C@@H]1CNc2c(sc3ccc4nc(N5CCN(C[C@H]6C[C@@]7(CCN(c8ccc9c(c8)n(C)c(=O)n9C8CCC(=O)NC8=O)C7)C6)CC5)ccc4c23)C(=O)N1` (stereo partly shown) [I-40] cannot be ordered by Dmax: > 50% for the first, > 75% for the second.

`Cn1c(=O)n(C2CCC(=O)NC2=O)c2ccc(C#CCN3CCN(c4ccc(-c5nccc(-c6cc7c([nH]6)C6(CC6)CNC7=O)n5)cc4)CC3)cc21` (stereo not shown) [I-41] and `COc1ccc2c(c1CCN1CCN(c3ccc(-c4nccc(-c5cc6c([nH]5)C5(CC5)CNC6=O)n4)cc3)CC1)n(C)c(=O)n2C1CCC(=O)NC1=O` (stereo not shown) [I-42] cannot be ordered by Dmax: > 75% for the first, > 75% for the second.

In the case of `Cn1c(=O)n(C2CCC(=O)NC2=O)c2ccc(N3CC(CN4CCC(n5cc(-c6nccc(-c7cc8c([nH]7)C7(CC7)CNC8=O)n6)cn5)CC4)C3)cc21` (stereo not shown) [I-44], the Dmax is reported as > 50%.

same assay, conditions: THP-1 cells, read-out: MK2 MSD THP-1 degradation 24 h GMean External Abs DC50

`C[C@@H]1CNc2c(sc3ccc4nc(N5CCC(COC6CCN(c7ccc8c(c7)n(C)c(=O)n8C7CCC(=O)NC7=O)CC6)CC5)ccc4c23)C(=O)N1` (stereo partly shown) [I-38] and `C[C@@H]1CNc2c(sc3ccc4nc(N5CCC(CN6CCC(N7CC(c8ccc9c(c8)n(C)c(=O)n9C8CCC(=O)NC8=O)C7)CC6)CC5)ccc4c23)C(=O)N1` (stereo partly shown) [I-43] cannot be ordered by DC50: < 1 nM for the first, < 1 nM for the second.

`C[C@@H]1CNc2c(sc3ccc4nc(N5CCN(C[C@H]6C[C@]7(CCN(c8ccc9c(c8)n(C)c(=O)n9C8CCC(=O)NC8=O)C7)C6)CC5)ccc4c23)C(=O)N1` (stereo partly shown) [I-39] and `C[C@@H]1CNc2c(sc3ccc4nc(N5CCN(C[C@H]6C[C@@]7(CCN(c8ccc9c(c8)n(C)c(=O)n9C8CCC(=O)NC8=O)C7)C6)CC5)ccc4c23)C(=O)N1` (stereo partly shown) [I-40] cannot be ordered by DC50: < 1 nM for the first, < 1 nM for the second.

`Cn1c(=O)n(C2CCC(=O)NC2=O)c2ccc(C#CCN3CCN(c4ccc(-c5nccc(-c6cc7c([nH]6)C6(CC6)CNC7=O)n5)cc4)CC3)cc21` (stereo not shown) [I-41] and `COc1ccc2c(c1CCN1CCN(c3ccc(-c4nccc(-c5cc6c([nH]5)C5(CC5)CNC6=O)n4)cc3)CC1)n(C)c(=O)n2C1CCC(=O)NC1=O` (stereo not shown) [I-42] cannot be ordered by DC50: < 1 nM for the first, < 1 nM for the second.

For `Cn1c(=O)n(C2CCC(=O)NC2=O)c2ccc(N3CC(CN4CCC(n5cc(-c6nccc(-c7cc8c([nH]7)C7(CC7)CNC8=O)n6)cn5)CC4)C3)cc21` (stereo not shown) [I-44], the DC50 was > 100 nM.
